Experiments:
human skin fibroblasts = assay: Inhibition of dermal contraction, fibroblast-populated collagen I gel; format: cell-based; settings: positive control at 50 μM; collagen gels up to 7 days
Experimental: The skin model comprises human skin fibroblasts imbedded in a collagen I matrix and provides an in vitro representation of dermal contraction resulting from tractional forces generated by fibroblasts.
The ability of exemplary plant extracts to inhibit dermal contraction was evaluated on human skin fibroblasts (Cascade Biologics, Portland, Oreg.). The cells were imbedded in a collagen I matrix to create a derm-like environment. Fibroblasts were grown in complete M106 to 80% confluence. Free-floating fibroblast-populated collagen gels were prepared in 24-well plates. […] The mix was kept on ice until distribution. The derm-like gels were allowed to polymerize for 1 hour at 37° C. in a humidified 5% CO2 atmosphere. After incubation, the gels were detached from the wells. […] FBS at a final concentration of 10% was added to each well. The plate was incubated for a maximum of 7 days at 37° C. in a humidified 5% CO2 atmosphere. All assays were performed in duplicate. Contraction was measured beginning at day 3. Contracting gels were digitally photographed and the gel areas were calculated using ImagePro software.

human skin keratinocytes = assay: IL-8 release ELISA; format: cell-based; settings: positive control at 2.5 μM; 48 hours
Experimental: The amount of Interleukin-8 (IL-8) released after exposure of keratinocytes to a plant extract, as described below, can be used to quantify any possible irritation reaction to the extract.
IL-8 release was evaluated in human skin keratinocytes (Cascade Biologics, Portland, Oreg.) using the Quantikine hIL-8 ELISA kit (R&D Systems, Minneapolis, Minn.). Keratinocytes were first grown in a 96-well plate using the complete M154 (M154+HKGS from Cascade Biologics). This media was also used as control. Phorbol 12-myristate 13-acetate (PMA) (Sigma-Aldrich Canada, Oakville, Ontario) at a concentration of 2.5 μM was used as a positive control. All tested plant extracts and the controls were diluted in complete M154 at a non-cytotoxic concentration (i.e. the concentration that provided 100% viability of keratinocytes as shown in Table 10). Cells were seeded into 96-well plates at a concentration of 8×10^3 cells/well in complete M154 media. Plates were incubated for 48 hours at 37° C. in a humidified 5% CO2 atmosphere. After incubation, the medium was removed and 200 μl of sample was added to the wells (all in duplicate). […]
After incubation, each well was washed four times with wash buffer. […] The plate was then gently mixed and the absorbance read at 450 nm on the Spectrafluor Plus plate reader (Tecan). The reading was taken within 15 minutes following addition of the stop solution. […]

Structure (SMILES): CNC(=O)[C@H](Cc1c[nH]c2ccccc12)NC(=O)[C@@H](CC(=O)NO)CC(C)C [GM6001]
- inhibition of contraction (human skin fibroblasts): limited, but not complete, inhibition of contraction

Structure (SMILES): CCCCCCCCCCCCCC(=O)O[C@@H]1[C@@H](C)[C@@]2(O)[C@@H](C=C(CO)C[C@]3(O)C(=O)C(C)=C[C@@H]23)[C@@H]2C(C)(C)[C@]12OC(C)=O [PMA, Phorbol 12-myristate 13-acetate]
- IL-8 release (human skin keratinocytes): highest level of IL-8 release

From patent US20110311661A1, “Plant Extracts and Dermatological Uses Thereof” (priority 2003, published 2011)
